For data set [1], the target named is proteinase K (Parengyodontium album, UniProt P06873). The data set is described as follows: HPLC-based proteolysis assay with proteinase K. The format is in vitro ADME.
The conditions of data set [2]: variable temperature CD, 20 mM sodium phosphate buffer, pH 7.

Like-named read-outs stand apart in the source and are kept apart here.

proteinase K, sequence (P06873 106-384, species assumed): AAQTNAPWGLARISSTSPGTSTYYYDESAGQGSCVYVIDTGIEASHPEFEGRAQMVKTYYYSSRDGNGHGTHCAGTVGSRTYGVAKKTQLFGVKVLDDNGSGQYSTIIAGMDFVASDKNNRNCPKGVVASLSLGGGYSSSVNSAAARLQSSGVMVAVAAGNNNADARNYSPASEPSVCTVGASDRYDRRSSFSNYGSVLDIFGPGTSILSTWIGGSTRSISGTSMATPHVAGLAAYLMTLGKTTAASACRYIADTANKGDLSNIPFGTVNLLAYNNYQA

With `CC[C@H](C)[C@H](NC(=O)[C@H](Cc1c[nH]cn1)NC(=O)[C@H](CC(N)=O)NC(=O)[C@H](Cc1ccccc1)NC(=O)[C@H](Cc1ccc(O)cc1)NC(=O)[C@H](Cc1ccc(O)cc1)NC(=O)[C@@H](NC(=O)[C@H](CCCNC(=N)N)NC(=O)CNC(=O)[C@H](CO)NC(=O)[C@H](CO)NC(=O)[C@H](CCCNC(=N)N)NC(=O)[C@H](CO)NC(=O)[C@H](CCSC)NC(=O)[C@H](CCCNC(=N)N)NC(=O)[C@H](CCCCN)NC(=O)[C@H](CCC(=O)O)NC(=O)[C@H](Cc1c[nH]c2ccccc12)NC(=O)CNC(=O)[C@@H]1CCCN1C(=O)[C@@H]1CCCN1C(=O)[C@H](CC(C)C)NC(=O)[C@@H](N)CCCCN)C(C)C)C(=O)N[C@@H](CCC(N)=O)C(=O)N[C@@H](CC(N)=O)C(=O)N[C@@H](C)C(=O)N[C@@H](CO)C(=O)N[C@@H](CCC(N)=O)C(=O)N[C@@H](Cc1ccccc1)C(=O)N[C@@H](CCC(=O)O)C(=O)N[C@@H](CCCNC(=N)N)C(=O)N1CCC[C@H]1C(=O)N[C@@H](CO)C(=O)NCC(=O)O` [29Q], in data set [1], the “k, apparent proteolysis rate constant” value amounted to 47.2 ±2.6 s^−1 × 10^3. For the same molecule, the “Tm (melting temperature)” value in data set [2] (50 μM protein) is 45.3 ±0.5 °C.

As to `CC[C@H](C)[C@H](NC(=O)[C@H](Cc1c[nH]cn1)NC(=O)[C@H](CC(N)=O)NC(=O)[C@H](Cc1ccccc1)NC(=O)[C@H](Cc1ccc(O)cc1)NC(=O)[C@H](Cc1ccc(O)cc1)NC(=O)[C@@H](NC(=O)[C@H](CCCNC(=N)N)NC(=O)CNC(=O)[C@H](CO)NC(=O)[C@H](CO)NC(=O)[C@H](CCCNC(=N)N)NC(=O)[C@H](CO)NC(=O)[C@H](CCSC)NC(=O)[C@H](CCCNC(=N)N)NC(=O)[C@H](CCCCN)NC(=O)[C@H](CCC(=O)O)NC(=O)[C@H](Cc1c[nH]c2ccccc12)NC(=O)CNC(=O)[C@@H]1CCCN1C(=O)[C@@H]1CCCN1C(=O)[C@H](CC(C)C)NC(=O)[C@@H](N)CCCCN)C(C)C)C(=O)N[C@@H](CC(N)=O)C(=O)N[C@@H](CC(N)=O)C(=O)N[C@@H](C)C(=O)N[C@@H](CO)C(=O)N[C@@H](CCC(N)=O)C(=O)N[C@@H](Cc1ccccc1)C(=O)N[C@@H](CCC(=O)O)C(=O)N[C@@H](CCCNC(=N)N)C(=O)N1CCC[C@H]1C(=O)N[C@@H](CO)C(=O)NCC(=O)O` [29N], the “Tm (melting temperature)” value in data set [2] (50 μM protein) worked out at 50.0 ±0.1 °C.

As for `CC[C@H](C)[C@H](NC(=O)[C@H](Cc1c[nH]cn1)NC(=O)[C@H](CC(N)=O)NC(=O)[C@H](Cc1ccccc1)NC(=O)[C@H](Cc1ccc(O)cc1)NC(=O)[C@H](CC(N)=O)NC(=O)[C@@H](NC(=O)[C@H](CCCNC(=N)N)NC(=O)CNC(=O)[C@H](CO)NC(=O)[C@H](CO)NC(=O)[C@H](CCCNC(=N)N)NC(=O)[C@H](CO)NC(=O)[C@H](CCSC)NC(=O)[C@H](CCCNC(=N)N)NC(=O)[C@H](CCCCN)NC(=O)[C@H](CCC(=O)O)NC(=O)[C@H](Cc1c[nH]c2ccccc12)NC(=O)CNC(=O)[C@@H]1CCCN1C(=O)[C@@H]1CCCN1C(=O)[C@H](CC(C)C)NC(=O)[C@@H](N)CCCCN)C(C)C)C(=O)N[C@H](C(=O)N[C@@H](CC(N)=O)C(=O)N[C@@H](C)C(=O)N[C@@H](CO)C(=O)N[C@@H](CCC(N)=O)C(=O)N[C@@H](Cc1ccccc1)C(=O)N[C@@H](CCC(=O)O)C(=O)N[C@@H](CCCNC(=N)N)C(=O)N1CCC[C@H]1C(=O)N[C@@H](CO)C(=O)NCC(=O)O)[C@@H](C)O` [23N], the “Tm (melting temperature)” value in data set [2] (50 μM protein) was determined as 27.7 ±0.3 °C.

As for `CC[C@H](C)[C@H](NC(=O)[C@H](CC(N)=O)NC(=O)[C@H](CC(N)=O)NC(=O)[C@H](Cc1ccccc1)NC(=O)[C@H](Cc1ccc(O)cc1)NC(=O)[C@H](Cc1ccc(O)cc1)NC(=O)[C@@H](NC(=O)[C@H](CCCNC(=N)N)NC(=O)CNC(=O)[C@H](CO)NC(=O)[C@H](CO)NC(=O)[C@H](CCCNC(=N)N)NC(=O)[C@H](CO)NC(=O)[C@H](CCSC)NC(=O)[C@H](CCCNC(=N)N)NC(=O)[C@H](CCCCN)NC(=O)[C@H](CCC(=O)O)NC(=O)[C@H](Cc1c[nH]c2ccccc12)NC(=O)CNC(=O)[C@@H]1CCCN1C(=O)[C@@H]1CCCN1C(=O)[C@H](CC(C)C)NC(=O)[C@@H](N)CCCCN)C(C)C)C(=O)N[C@H](C(=O)N[C@@H](CC(N)=O)C(=O)N[C@@H](C)C(=O)N[C@@H](CO)C(=O)N[C@@H](CCC(N)=O)C(=O)N[C@@H](Cc1ccccc1)C(=O)N[C@@H](CCC(=O)O)C(=O)N[C@@H](CCCNC(=N)N)C(=O)N1CCC[C@H]1C(=O)N[C@@H](CO)C(=O)NCC(=O)O)[C@@H](C)O` [27N], the “Tm (melting temperature)” value in data set [2] (50 μM protein) was 54.9 ±0.1 °C.

Turning to `CC[C@H](C)[C@H](NC(=O)[C@H](Cc1c[nH]cn1)NC(=O)[C@H](CC(N)=O)NC(=O)[C@H](Cc1ccccc1)NC(=O)[C@H](Cc1ccc(O)cc1)NC(=O)[C@H](Cc1ccc(O)cc1)NC(=O)[C@@H](NC(=O)[C@H](CCCNC(=N)N)NC(=O)CNC(=O)[C@H](CO)NC(=O)[C@H](CO)NC(=O)[C@H](CCCNC(=N)N)NC(=O)[C@H](CC(N)=O)NC(=O)[C@H](CCSC)NC(=O)[C@H](CCCNC(=N)N)NC(=O)[C@H](CCCCN)NC(=O)[C@H](CCC(=O)O)NC(=O)[C@H](Cc1c[nH]c2ccccc12)NC(=O)CNC(=O)[C@@H]1CCCN1C(=O)[C@@H]1CCCN1C(=O)[C@H](CC(C)C)NC(=O)[C@@H](N)CCCCN)C(C)C)C(=O)N[C@H](C(=O)N[C@@H](CC(N)=O)C(=O)N[C@@H](C)C(=O)N[C@@H](CO)C(=O)N[C@@H](CCC(N)=O)C(=O)N[C@@H](Cc1ccccc1)C(=O)N[C@@H](CCC(=O)O)C(=O)N[C@@H](CCCNC(=N)N)C(=O)N1CCC[C@H]1C(=O)N[C@@H](CO)C(=O)NCC(=O)O)[C@@H](C)O` [16N], the “Tm (melting temperature)” value in data set [2] (100 μM protein) came to 50.6 ±0.2 °C.

Take `CC[C@H](C)[C@H](NC(=O)[C@H](Cc1c[nH]cn1)NC(=O)[C@H](CC(N)=O)NC(=O)[C@H](Cc1ccccc1)NC(=O)[C@H](Cc1ccc(O)cc1)NC(=O)[C@H](CCC(N)=O)NC(=O)[C@@H](NC(=O)[C@H](CCCNC(=N)N)NC(=O)CNC(=O)[C@H](CO)NC(=O)[C@H](CO)NC(=O)[C@H](CCCNC(=N)N)NC(=O)[C@H](CO)NC(=O)[C@H](CCSC)NC(=O)[C@H](CCCNC(=N)N)NC(=O)[C@H](CCCCN)NC(=O)[C@H](CCC(=O)O)NC(=O)[C@H](Cc1c[nH]c2ccccc12)NC(=O)CNC(=O)[C@@H]1CCCN1C(=O)[C@@H]1CCCN1C(=O)[C@H](CC(C)C)NC(=O)[C@@H](N)CCCCN)C(C)C)C(=O)N[C@H](C(=O)N[C@@H](CC(N)=O)C(=O)N[C@@H](C)C(=O)N[C@@H](CO)C(=O)N[C@@H](CCC(N)=O)C(=O)N[C@@H](Cc1ccccc1)C(=O)N[C@@H](CCC(=O)O)C(=O)N[C@@H](CCCNC(=N)N)C(=O)N1CCC[C@H]1C(=O)N[C@@H](CO)C(=O)NCC(=O)O)[C@@H](C)O` [23Q]: the “k, apparent proteolysis rate constant” value in data set [1] came to 46.9 ±5.3 s^−1 × 10^3. Further, the “Tm (melting temperature)” value in data set [2] (50 μM protein) is 39.4 ±0.2 °C.

Turning to `CC[C@H](C)[C@H](NC(=O)[C@H](Cc1c[nH]cn1)NC(=O)[C@H](CC(N)=O)NC(=O)[C@H](Cc1ccccc1)NC(=O)[C@H](Cc1ccc(O)cc1)NC(=O)[C@H](Cc1ccc(O)cc1)NC(=O)[C@@H](NC(=O)[C@H](CCCNC(=N)N)NC(=O)CNC(=O)[C@H](CO)NC(=O)[C@H](CO)NC(=O)[C@H](CCCNC(=N)N)NC(=O)[C@H](CCC(N)=O)NC(=O)[C@H](CCSC)NC(=O)[C@H](CCCNC(=N)N)NC(=O)[C@H](CCCCN)NC(=O)[C@H](CCC(=O)O)NC(=O)[C@H](Cc1c[nH]c2ccccc12)NC(=O)CNC(=O)[C@@H]1CCCN1C(=O)[C@@H]1CCCN1C(=O)[C@H](CC(C)C)NC(=O)[C@@H](N)CCCCN)C(C)C)C(=O)N[C@H](C(=O)N[C@@H](CC(N)=O)C(=O)N[C@@H](C)C(=O)N[C@@H](CO)C(=O)N[C@@H](CCC(N)=O)C(=O)N[C@@H](Cc1ccccc1)C(=O)N[C@@H](CCC(=O)O)C(=O)N[C@@H](CCCNC(=N)N)C(=O)N1CCC[C@H]1C(=O)N[C@@H](CO)C(=O)NCC(=O)O)[C@@H](C)O` [16Q], in data set [1], the “k, apparent proteolysis rate constant” value was 8.9 ±0.2 s^−1 × 10^3. Moreover, the “Tm (melting temperature)” value in data set [2] (50 μM protein) was determined as 56.6 ±0.1 °C.

Turning to `CC[C@H](C)[C@H](NC(=O)[C@H](Cc1c[nH]cn1)NC(=O)[C@H](CC(N)=O)NC(=O)[C@H](Cc1ccccc1)NC(=O)[C@H](Cc1ccc(O)cc1)NC(=O)[C@H](Cc1ccc(O)cc1)NC(=O)[C@@H](NC(=O)[C@H](CCCNC(=N)N)NC(=O)CNC(=O)[C@H](CO)NC(=O)[C@H](CC(N)=O)NC(=O)[C@H](CCCNC(=N)N)NC(=O)[C@H](CO)NC(=O)[C@H](CCSC)NC(=O)[C@H](CCCNC(=N)N)NC(=O)[C@H](CCCCN)NC(=O)[C@H](CCC(=O)O)NC(=O)[C@H](Cc1c[nH]c2ccccc12)NC(=O)CNC(=O)[C@@H]1CCCN1C(=O)[C@@H]1CCCN1C(=O)[C@H](CC(C)C)NC(=O)[C@@H](N)CCCCN)C(C)C)C(=O)N[C@H](C(=O)N[C@@H](CC(N)=O)C(=O)N[C@@H](C)C(=O)N[C@@H](CO)C(=O)N[C@@H](CCC(N)=O)C(=O)N[C@@H](Cc1ccccc1)C(=O)N[C@@H](CCC(=O)O)C(=O)N[C@@H](CCCNC(=N)N)C(=O)N1CCC[C@H]1C(=O)N[C@@H](CO)C(=O)NCC(=O)O)[C@@H](C)O` [18N], in data set [2] (100 μM protein), the “Tm (melting temperature)” value is 57.5 ±0.1 °C.

In the case of `CC[C@H](C)[C@H](NC(=O)[C@H](Cc1c[nH]cn1)NC(=O)[C@H](CC(N)=O)NC(=O)[C@H](Cc1ccccc1)NC(=O)[C@H](Cc1ccc(O)cc1)NC(=O)[C@H](Cc1ccc(O)cc1)NC(=O)[C@@H](NC(=O)[C@H](CCCNC(=N)N)NC(=O)CNC(=O)[C@H](CO)NC(=O)[C@H](CO)NC(=O)[C@H](CCCNC(=N)N)NC(=O)[C@H](CO)NC(=O)[C@H](CCSC)NC(=O)[C@H](CCCNC(=N)N)NC(=O)[C@H](CCCCN)NC(=O)[C@H](CCC(=O)O)NC(=O)[C@H](Cc1c[nH]c2ccccc12)NC(=O)CNC(=O)[C@@H]1CCCN1C(=O)[C@@H]1CCCN1C(=O)[C@H](CC(C)C)NC(=O)[C@@H](N)CCCCN)C(C)C)C(=O)N[C@H](C(=O)N[C@@H](CC(N)=O)C(=O)N[C@@H](C)C(=O)N[C@@H](CC(N)=O)C(=O)N[C@@H](CCC(N)=O)C(=O)N[C@@H](Cc1ccccc1)C(=O)N[C@@H](CCC(=O)O)C(=O)N[C@@H](CCCNC(=N)N)C(=O)N1CCC[C@H]1C(=O)N[C@@H](CO)C(=O)NCC(=O)O)[C@@H](C)O` [32N], the “Tm (melting temperature)” value in data set [2] (100 μM protein) came out at 45.1 ±0.2 °C.

Values taken from PMC6330093 (Bioconjugate chemistry, 2017).
